This is an account of results in US20220111065A1, “MOLECULAR ADJUVANT” (ADC THERAPEUTICS SA, priority 2018, published 2022).

For data set [1], the system named is CD25-positive acute myeloid leukemia (AML). Put plainly: Phase 1 study of ADCx25, weekly fractionated dosing, in relapsed or refractory AML/ALL (Example 2). Format: in vivo, human. An excerpt: Patients with relapsed or refractory cluster of differentiation 25 (CD25)-positive acute myeloid leukemia (AML) or CD25-positive acute lymphoblastic leukemia (ALL) who have failed, or are intolerant to, any established therapy known to provide clinical benefit at current state of disease. Patients with myelodysplastic syndrome who have received treatment with hypomethylating agents and subsequently present with CD25+ AML and who failed, or are ineligible for standard induction therapy, are eligible for treatment with ADCx25.
Assessment of response to treatment with ADCX25 will be based on bone marrow samples (aspirate or biopsy, if aspirate unattainable). The activity of ADCX25 will be evaluated based on the Investigator's evaluation of the patient's response to ADCX25 as CR, CRi, PR, PD, or NR as defined herein.
ADCX25 is a sterile formulation containing PBD-conjugated HuMax®-TAC (DAR≥1), HuMax®-TAC (DAR=0), and SG3249. It is provided pre-formulated in 10-mL glass vials containing approximately 30 mg of ADCX25 per vial (deliverable volume 5.4 mL at 6 mg/mL). The appropriate quantity of ADCX25 will be diluted in 50 mL of 5% dextrose in water (D5W).
Patients will receive a 1-hour intravenous (IV) infusion of ADCX25 on Day 1 of Cycle 1. […]

Data set [2] relates to MC38 cells. Put plainly: Re-challenge of tumor-free survivors from MC38 efficacy study (Example 3). In kind it is in vivo, mouse. The note with it: complete responders of Example 1 re-implanted with MC38 cells in contralateral flank; no treatment in re-challenge (FIG. 4). The method, then:
On Day 1 of the re-challenge study, 5×10^5 MC38 cells (0.1 mL suspension) were subcutaneously implanted into the left flank (contralateral to the original cell implant) and tumor growth was monitored. No ADC or anti-PD-1 treatment was administered in the rechallenge study.
Animal handling and tumour measurement was as in Example 1 unless otherwise stated.

Data set [3] has as its system MC38 cells. Put plainly: MC38 efficacy with CD8+ T-cell depletion by anti-CD8 (Example 6). Format: in vivo, mouse. The note with it: CD8+ T-cells depleted with anti-CD8-2.43 antibody (FIG. 8, FIG. 9). From the text: Treatment may cause partial regression (PR) or complete regression (CR) of the tumor in an animal.
In a PR response, the tumor volume is 50% or less of its Day 1 volume for three consecutive measurements during the course of the study, and equal to or greater than 13.5 mm^3 for one or more of these three measurements.
In a CR response, the tumor volume is less than 13.5 mm^3 for three consecutive measurements during the study.
Any animal with a CR response at the end of the study was additionally classified as a tumor-free survivor (TFS).
Animals were scored only once during the study for a PR or CR event and only as CR if both PR and CR criteria were satisfied.
The Coefficient of Drug Interaction (CDI) (11) in were assessed for subadditive, additive, or supra-additive (synergism) properties on Day 21, the last day all evaluable animals remained on study.
The CDI was determined according to the equation below:
Where, • x=mean tumor volume • AB=xAB/xC • A=xA/xC • B=xB/xC […]
On the day of implant 5×10^5 MC38 cells (0.1 mL suspension) were subcutaneously implanted into the right flank of each test animal. Tumors were monitored as their volumes approached the target range of 80-120 mm^3. […]
Tumors were measured twice per week until the study was ended (day29 for anti-CD8+surADCx25 and anti-CD8+anti-PD1+surADCx25 groups; day 44 for surADCx25 alone and surADCx25+anti-CD8). […]

A further data set has as its system CT26 cells. The data set can be described thus: Re-challenge of tumor-free survivors from CT26 efficacy study (Example 5). Format: in vivo, mouse. The note with it: complete responders of Example 4 re-implanted with CT26 cells in contralateral flank; no treatment in re-challenge (FIG. 7). Here is the method: On Day 1 of the re-challenge study […] CT26 cells (0.1 mL suspension) were subcutaneously implanted into the left flank (contralateral to the cell implant of example 4) and tumor growth was monitored and measured as described in example 4.
No treatment was administered in the re-challenge study.

The test system of data set [4] is selected advanced solid tumors. The data set can be described thus: Phase 1b dose-escalation study of Camidanlumab Tesirine in advanced solid tumors (Example 9). Format: in vivo, human. From the text:
This is a report of preliminary data from a Phase 1b trial of Camidanlumab Tesirine (NCT03621982; ADC Therapeutics) in patients (pt) with selected advanced solid tumors […] (AST) who have failed existing therapies.
This multicenter, open-label, dose-escalation (part 1), and dose-expansion (part 2) study is currently enrolling subjects (aged≥18 years) with selected AST. The primary objective is to evaluate the safety and tolerability and to identify the recommended dose. Secondary objectives are to assess preliminary antitumor activity, pharmacokinetics (PK), and immunogenicity.
Subjects receive 1-hour intravenous infusions of Camidanlumab Tesirine every 3 weeks (Q3W) from a starting dose cohort of 20 μg/kg. Subsequent cohorts are enrolled at escalating doses according to a 3+3 design.

The subject of the next data set is advanced melanoma. The note with it: phase III trials; cited from earlier work.
[5] abbreviates: 6 subjects, 20-30 μg/kg Q3W i.v., preliminary.

Regarding “ADCx25: human antibody against human CD25 (AB12, HuMax-TAC) attached to a pyrrolobenzodiazepine (PBD) warhead via a cleavable linker”, in data set [1] (2 subjects with AML who had previously received bone marrow stem cell transfers), the “clinical response of AML” value is on record as “complete remission”. The response to treatment entry in data set [1] (Patient 1: relapsed AML FAB M0, 30 ug/kg QW cohort, prior allogenic transplant, after 5 cycles) was “CRi”. For the same molecule, in the data set on MC38 cells [2], the “development of new tumors on re-challenge” value is listed as “did not develop new tumors”. Besides, the “anti-tumor activity when CD8+ T-cells are depleted” value in the data set with MC38 cells [3] is given as “dependent on CD8+ T-cells”. In addition, the “development of new tumors on re-challenge” value in the data set on CT26 cells is given as “did not develop new tumors”. The “number of subjects with stable disease” value in data set [4] (20 μg/kg Q3W) is on record as 2. The “number of subjects with stable disease” value in data set [4] (30 μg/kg Q3W, reported a few days after the cutoff date) came out at 2. In data set [4] (6 subjects, 20-30 μg/kg Q3W i.v., 21-day reporting period, preliminary, as of Apr. 16, 2019), the dose-limiting toxicities entry is recorded as “No dose-limiting toxicities”. In data set [4] (setting [5]), the “best response recorded (response evaluation criteria in solid tumors)” value is on record as “Stable disease”; the “most common (≥3 pts) adverse events regardless of relationship” value was “fatigue and nausea”; the “related high-grade AEs or serious AEs” value was “no reported grade ?3 AEs or serious AEs considered related”.

B1: tremelimumab: anti-CTLA4 antibody (antibody)
VH: GVVQPGRSLRLSCAASGFTFSSYGMHWVRQAPGKGLEWVAVIWYDGSNKYYADSVKGRFTISRDNSKNTLYLQMNSLRAEDTAVYYCARDPRGATLYYYYYGMDVWGQGTTVTVSSASTKGPSVFPLAPCSRSTSESTAALGCLVKDYFPEPVTVSWNSGALTSGVH
VL: PSSLSASVGDRVTITCRASQSINSYLDWYQQKPGKAPKLLIYAASSLQSGVPSRFSGSGSGTDFTLTISSLQPEDFATYYCQQYYSTPFTFGPGTKVEIKRTVAAPSVFIFPPSDEQLKSGTASVVCLLNNFYPREAKV
modifications: Tremelimumab VH; Tremelimumab VL
notes: anti-CTLA4 antibody
Turning to B1, the “overall survival compared to the standard of care (temozolomide or dacarbazine)” value with advanced melanoma is listed as “did not significantly increase”.
